Reference: ChEMBL document CHEMBL5052818, “Aminopyrimidine derivatives as ctps1 inhibitors” (2019)

assay: Inhibition of C-terminal FLAG-His-tagged full length human CTPS1 measured after 60 mins by ADP-Glo assay

Row | SMILES | IC50 [nM]
1 | CC(C)(C(=O)Nc1ccc(-c2cccc(C(F)(F)F)c2)cc1)c1ccnc(NS(=O)(=O)C2CC2)n1 | > 1000
2 | CCC(C(=O)Nc1ccc(-c2cccnc2)cc1F)c1ccnc(NS(=O)(=O)C2CC2)n1 (stereo not given) | > 1000
3 | O=C(Cc1ccnc(NS(=O)(=O)C2CC2)n1)Nc1ccc(-c2ccccc2)cc1 | > 1000
4 | CCC(C(=O)Nc1ccc(-c2cncc(OCC(F)(F)F)c2)cc1)c1ccnc(NS(=O)(=O)C2CC2)n1 (stereo not given) | > 100
5 | CC(C)(C(=O)Nc1ccc(-c2cccnc2)cc1F)c1ccnc(NS(=O)(=O)C2CC2)n1 | > 1000
6 | CCOc1cncc(-c2cc(C)c(NC(=O)C(C)(C)c3ccnc(NS(=O)(=O)C4CC4)n3)cc2C)n1 | > 100
7 | CC(C)(C(=O)Nc1ccc(-c2cnccn2)cc1F)c1ccnc(NS(=O)(=O)C2CC2)n1 | > 1000
8 | O=C(Cc1ccnc(NS(=O)(=O)C2CC2)n1)Nc1ccc(-c2cccnc2)cc1 | > 100
9 | CCC(C(=O)Nc1ccc(-c2cccnc2)cc1)c1ccnc(NS(=O)(=O)C2CC2)n1 (stereo not given) | > 100
10 | CCOc1cncc(-c2cc(OC)c(NC(=O)C(C)(C)c3ccnc(NS(=O)(=O)C4CC4)n3)cc2F)n1 | > 100
11 | CCC(C(=O)Nc1ccc(-c2cccnc2)cn1)c1ccnc(NS(=O)(=O)C2CC2)n1 (stereo not given) | > 1000
12 | CC(C)(C(=O)Nc1ccc(-c2cnccn2)cc1)c1ccnc(NS(=O)(=O)C2CC2)n1 | > 1000
13 | CC(C)Oc1cncc(-c2ccc(NC(=O)C(C)(C)c3ccnc(NS(C)(=O)=O)n3)c(F)c2)n1 | > 100

More lines, now with the values ahead:

Row | IC50 [nM] | SMILES
14 | > 100 | CCC(C(=O)Nc1ccc(-c2cnccn2)cc1F)c1ccnc(NS(=O)(=O)C2CC2)n1 (stereo not given)
15 | ≤ 100 | CCC(C(=O)Nc1ccc(-c2cncc(OC)n2)cc1F)c1ccnc(NS(=O)(=O)C2CC2)n1 (stereo not given)
16 | ≤ 100 | CCC(C(=O)Nc1ccc(-c2cncc(C(F)(F)F)n2)cn1)c1ccnc(NS(=O)(=O)C2CC2)n1 (stereo not given)
17 | > 100 | CCOc1cncc(-c2ccc(NC(=O)C(C)(C)c3ccnc(NS(=O)(=O)C4CCC4)n3)c(C)c2)n1
18 | > 100 | CCOc1cncc(-c2ccc(NC(=O)C(C)(C)c3ccnc(NS(=O)(=O)CC)n3)c(F)c2)n1
19 | > 100 | CCC(C(=O)Nc1ccc(-c2cncc(C(F)(F)F)n2)cc1)c1ccnc(NS(=O)(=O)C2CC2)n1 (stereo not given)
20 | ≤ 100 | CCC(C(=O)Nc1ccc(-c2cncc(OC(C)C)n2)cn1)c1ccnc(NS(=O)(=O)C2CC2)n1 (stereo not given)
21 | ≤ 100 | CCOc1cncc(-c2ccc(NC(=O)C(C)(C)c3ccnc(NS(=O)(=O)C4CC4)n3)nc2)n1
22 | ≤ 100 | CC(C)(C(=O)Nc1ccc(-c2cncc(OC3CC3)n2)cn1)c1ccnc(NS(=O)(=O)C2CC2)n1
23 | ≤ 100 | COc1cncc(-c2ccc(NC(=O)Cc3ccnc(NS(=O)(=O)C4CC4)n3)cc2)n1
24 | ≤ 100 | CCOc1cncc(-c2ccc(NC(=O)C(C)(C)c3ccnc(NS(=O)(=O)C4CC4)n3)c(OC)c2)n1
25 | ≤ 100 | CCOc1cncc(-c2ccc(NC(=O)C(C)(C)c3ccnc(NS(=O)(=O)C4CC4)n3)c(C#N)c2)n1
